# Test results reported in PubChem BioAssay (NCI).
#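 1) Cells in 96-well plates. 2) Compound, 48 h, 5 concentrations. 3) Linear interpolation between surrounding doses. 4) Unreached endpoint = highest concentration. GI50 marks 50% less growth. TGI denotes the concentration required for complete inhibition of growth.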
# How the values were obtained:
# Assay in all cases: DTP human tumour cell line panel, 48 h
# SK-OV-3 ovarian = system: SK-OV-3 ovarian
# NCI-H460 lung = system: NCI-H460 lung
# K-562 leukemia = system: K-562 leukemia
# HCT-15 colon = system: HCT-15 colon
# M14 melanoma = system: M14 melanoma
# RPMI-8226 leukemia = system: RPMI-8226 leukemia
# SNB-75 CNS = system: SNB-75 CNS
# CAKI-1 renal = system: CAKI-1 renal
# HS 578T breast = system: HS 578T breast
# NCI-H522 lung = system: NCI-H522 lung
# SK-MEL-5 melanoma = system: SK-MEL-5 melanoma
# HOP-92 NSCLC = system: HOP-92 NSCLC
# T-47D breast = system: T-47D breast
# IGROV1 ovarian = system: IGROV1 ovarian
# MOLT-4 leukemia = system: MOLT-4 leukemia
# SK-MEL-28 melanoma = system: SK-MEL-28 melanoma
# COLO 205 colon = system: COLO 205 colon
# SF-268 CNS = system: SF-268 CNS
# CCRF-CEM leukemia = system: CCRF-CEM leukemia
# HT29 colon = system: HT29 colon
# A498 renal = system: A498 renal
# DU-145 prostate = system: DU-145 prostate
# HOP-62 NSCLC = system: HOP-62 NSCLC
# U251 CNS = system: U251 CNS
# PC-3 prostate = system: PC-3 prostate
# MDA-MB-231 breast = system: MDA-MB-231 breast
# SW-620 colon = system: SW-620 colon
# KM12 colon = system: KM12 colon
# MCF7 breast = system: MCF7 breast
# UACC-62 melanoma = system: UACC-62 melanoma
# 786-0 renal = system: 786-0 renal
# NCI-H23 lung = system: NCI-H23 lung
# RXF 393 renal = system: RXF 393 renal
# BT-549 breast = system: BT-549 breast
# SNB-19 CNS = system: SNB-19 CNS
# EKVX NSCLC = system: EKVX NSCLC
# MDA-MB-435 = system: MDA-MB-435
# UO-31 renal = system: UO-31 renal
# OVCAR-4 ovarian = system: OVCAR-4 ovarian
# SF-295 CNS = system: SF-295 CNS
# OVCAR-5 ovarian = system: OVCAR-5 ovarian
# HCT-116 colon = system: HCT-116 colon
# SF-539 CNS = system: SF-539 CNS
# NCI/ADR-RES ovarian = system: NCI/ADR-RES ovarian
# SN12C renal = system: SN12C renal
# TK-10 renal = system: TK-10 renal
# SK-MEL-2 melanoma = system: SK-MEL-2 melanoma
# ACHN renal = system: ACHN renal
# OVCAR-3 ovarian = system: OVCAR-3 ovarian
# NCI-H226 lung = system: NCI-H226 lung
# LOX IMVI melanoma = system: LOX IMVI melanoma
# MALME-3M melanoma = system: MALME-3M melanoma
smiles,measurement,setting,value
COC1C(OC(=O)/C=C/C=C/C=C/C=C\C(=O)O)CCC2(CO2)C1C1(C)OC1CC=C(C)C (stereo not drawn),GI50,SK-OV-3 ovarian,> 200 µM
same,TGI,SK-OV-3 ovarian,> 200 µM
same,GI50,NCI-H460 lung,> 200 µM
same,TGI,NCI-H460 lung,> 200 µM
same,GI50,K-562 leukemia,> 200 µM
same,TGI,K-562 leukemia,> 200 µM
same,GI50,HCT-15 colon,> 200 µM
same,TGI,HCT-15 colon,> 200 µM
same,GI50,M14 melanoma,> 200 µM
same,TGI,M14 melanoma,> 200 µM
same,GI50,RPMI-8226 leukemia,> 200 µM
same,TGI,RPMI-8226 leukemia,> 200 µM
same,GI50,SNB-75 CNS,> 200 µM
same,TGI,SNB-75 CNS,> 200 µM
same,GI50,CAKI-1 renal,> 200 µM
same,TGI,CAKI-1 renal,> 200 µM
same,GI50,HS 578T breast,> 200 µM
same,TGI,HS 578T breast,> 200 µM
same,GI50,NCI-H522 lung,> 200 µM
same,TGI,NCI-H522 lung,> 200 µM
same,GI50,SK-MEL-5 melanoma,> 200 µM
same,TGI,SK-MEL-5 melanoma,> 200 µM
same,GI50,HOP-92 NSCLC,> 200 µM
same,TGI,HOP-92 NSCLC,> 200 µM
same,GI50,T-47D breast,> 200 µM
same,TGI,T-47D breast,> 200 µM
same,GI50,IGROV1 ovarian,> 200 µM
same,TGI,IGROV1 ovarian,> 200 µM
same,GI50,MOLT-4 leukemia,> 200 µM
same,TGI,MOLT-4 leukemia,> 200 µM
same,GI50,SK-MEL-28 melanoma,> 200 µM
same,TGI,SK-MEL-28 melanoma,> 200 µM
same,GI50,COLO 205 colon,> 200 µM
same,TGI,COLO 205 colon,> 200 µM
same,GI50,SF-268 CNS,> 200 µM
same,TGI,SF-268 CNS,> 200 µM
same,GI50,CCRF-CEM leukemia,> 200 µM
same,TGI,CCRF-CEM leukemia,> 200 µM
same,GI50,HT29 colon,> 200 µM
same,TGI,HT29 colon,> 200 µM
same,GI50,A498 renal,> 200 µM
same,TGI,A498 renal,> 200 µM
same,GI50,DU-145 prostate,> 200 µM
same,TGI,DU-145 prostate,> 200 µM
same,GI50,HOP-62 NSCLC,> 200 µM
same,TGI,HOP-62 NSCLC,> 200 µM
same,GI50,U251 CNS,> 200 µM
same,TGI,U251 CNS,> 200 µM
same,GI50,PC-3 prostate,> 200 µM
same,TGI,PC-3 prostate,> 200 µM
same,GI50,MDA-MB-231 breast,> 200 µM
same,TGI,MDA-MB-231 breast,> 200 µM
same,GI50,SW-620 colon,> 200 µM
same,TGI,SW-620 colon,> 200 µM
same,GI50,KM12 colon,> 200 µM
same,TGI,KM12 colon,> 200 µM
same,GI50,MCF7 breast,> 200 µM
same,TGI,MCF7 breast,> 200 µM
same,GI50,UACC-62 melanoma,> 200 µM
same,TGI,UACC-62 melanoma,> 200 µM
same,GI50,786-0 renal,> 200 µM
same,TGI,786-0 renal,> 200 µM
same,GI50,NCI-H23 lung,> 200 µM
same,TGI,NCI-H23 lung,> 200 µM
same,GI50,RXF 393 renal,> 200 µM
same,TGI,RXF 393 renal,> 200 µM
same,GI50,BT-549 breast,> 200 µM
same,TGI,BT-549 breast,> 200 µM
same,GI50,SNB-19 CNS,> 200 µM
same,TGI,SNB-19 CNS,> 200 µM
same,GI50,EKVX NSCLC,> 200 µM
same,TGI,EKVX NSCLC,> 200 µM
same,GI50,MDA-MB-435,> 200 µM
same,TGI,MDA-MB-435,> 200 µM
same,GI50,UO-31 renal,> 200 µM
same,TGI,UO-31 renal,> 200 µM
same,GI50,OVCAR-4 ovarian,> 200 µM
same,TGI,OVCAR-4 ovarian,> 200 µM
same,GI50,SF-295 CNS,> 200 µM
same,TGI,SF-295 CNS,> 200 µM
same,GI50,OVCAR-5 ovarian,> 200 µM
same,TGI,OVCAR-5 ovarian,> 200 µM
same,GI50,HCT-116 colon,> 200 µM
same,TGI,HCT-116 colon,> 200 µM
same,GI50,SF-539 CNS,> 200 µM
same,TGI,SF-539 CNS,> 200 µM
same,GI50,NCI/ADR-RES ovarian,> 200 µM
same,TGI,NCI/ADR-RES ovarian,> 200 µM
same,GI50,SN12C renal,> 200 µM
same,TGI,SN12C renal,> 200 µM
same,GI50,TK-10 renal,> 200 µM
same,TGI,TK-10 renal,> 200 µM
same,GI50,SK-MEL-2 melanoma,> 200 µM
same,TGI,SK-MEL-2 melanoma,> 200 µM
same,GI50,ACHN renal,> 200 µM
same,TGI,ACHN renal,> 200 µM
same,GI50,OVCAR-3 ovarian,> 200 µM
same,TGI,OVCAR-3 ovarian,> 200 µM
same,GI50,NCI-H226 lung,> 200 µM
same,TGI,NCI-H226 lung,> 200 µM
same,GI50,LOX IMVI melanoma,> 200 µM
same,TGI,LOX IMVI melanoma,> 200 µM
same,TGI,MALME-3M melanoma,> 200 µM
